Marks after values point to notes of the source that are not given here.
Assay: Randomized, double-blind, placebo-controlled dose-response study of gemcabene in patients with HDL-C <35 mg/dL; percent change from baseline in serum lipids and apolipoproteins
Format: in vivo, human
Experimental: A randomized, double-blind, placebo-controlled, parallel group, dose-response, multicenter study was conducted. The study was conducted at 11 centers in the United States and one center in Canada. Institutional Review Board approval was obtained at each center and every patient was informed of the study, freely consented to participate and signed an informed consent document. Following a 6-week, single-blind placebo, dietary lead in period conducted according to National Cholesterol Education Program Step 1 Diet, eligible patients with HDL-C level <35 mg/dL (0.9 mmol/L) were stratified according to whether mean serum TG levels, calculated from measures at 2 and 4 weeks prior to randomization, were <200 mg/dL (2.3 mmol/L) or >200 mg/dL (2.3 mmol/L). Within each TG stratum, patients were randomized to receive either 150, 300, 600, or 900 mg of gemcabene or placebo daily once daily for 12 weeks.
Eligible patients were women of non-childbearing potential (naturally postmenopausal or surgically sterilized) or men 18 to 80 years of age with a baseline serum HDL-C levels <35 mg/dL. Patients were excluded if they had creatine kinase serum levels >3 times the upper limit of normal, a body mass index >35 kilogram/meter^2, uncontrolled hypertension defined as sitting diastolic blood pressure >95 mm Hg whether taking or not taking an acceptable antihypertensive medication, uncontrolled diabetes mellitus (Hemoglobin A1C>10%), hepatic dysfunction including asparate aminotransferase or alanine aminotransferase levels >2 times the upper limits of normal, renal dysfunction as defined by blood urea nitrogen or creatinine levels >2 times upper limits of normal or uncontrolled hypothyroidism (thyroid stimulating hormone >1.5 times the upper limits of normal). Also excluded were those with a prior history of known gall bladder disease or pancreatitis, a history of consuming >14 alcoholic drinks per week, or those with a known hypersensitivity to lipid-altering drugs. Patients who had myocardial infarction, severe or unstable angina pectoris, coronary artery bypass graft or any other cardiovascular event requiring hospitalization within the last 3 months were also excluded from the study. Patients were not permitted any other lipid-altering drugs during the course of the study and if on prestudy lipid-altering drug therapy, were required to undergo an additional 4-week washout period. Use of isotretinoin, insulin, warfarin, immunosuppressive agents and intermittent systemic steroids were also prohibited. Alpha-blockers, β-blockers, hormone replacement therapy and oral hypoglycemic agents were permitted provided that their use was stable for at least 3 months.
The primary efficacy parameter was percent change from baseline in serum HDL-C levels at the study subject's last visit. Other efficacy parameters included percent change from baseline in serum LDL-C, TG, apolipoproteins A-I, A-II, B, C-III, E, and non-HDL-C levels. Additionally, nuclear magnetic resonance (NMR) spectroscopy was used to assess VLDL, HDL and LDL particle sizes as well as the total concentration of LDL particles. For HDL-C, non-HDL-C, LDL-C, and TG levels, the baseline value was the mean plasma value of two measurements, one obtained 2 weeks prior to randomization and one obtained at randomization. For all other parameters, the baseline value was defined as the single measurement obtained at randomization.
All blood samples were collected following a 12-hour fast and analyzed by Medical Research Laboratories in Highland Heights, Ky. Blood samples for routine chemistry and hematology profiles were measured at screening, randomization and 4, 8, and 12 weeks following the start of study medication. Basic lipid profiles (HDL-C, LDL-C, and TG) were measured at screening, 2 and 4 weeks prior to starting study medication (during the baseline phase), at randomization, and at weeks 2, 4, 8 and 12 of the treatment phase. […]

[1] = patients with TG <200 mg/dL, 150 mg once daily for 12 weeks, mean ± SE
[2] = patients with TG <200 mg/dL, 150 mg once daily for 12 weeks, median (min, max)
[3] = patients with TG <200 mg/dL, 300 mg once daily for 12 weeks, mean ± SE
[4] = patients with TG <200 mg/dL, 300 mg once daily for 12 weeks, median (min, max)
[5] = patients with TG <200 mg/dL, 600 mg once daily for 12 weeks, mean ± SE
[6] = patients with TG <200 mg/dL, 600 mg once daily for 12 weeks, median (min, max)
[7] = patients with TG <200 mg/dL, 900 mg once daily for 12 weeks, mean ± SE
[8] = patients with TG <200 mg/dL, 900 mg once daily for 12 weeks, median (min, max)
[9] = patients with TG ≧200 mg/dL, 150 mg once daily for 12 weeks, mean ± SE
[10] = patients with TG ≧200 mg/dL, 150 mg once daily for 12 weeks, median (min, max)
[11] = patients with TG ≧200 mg/dL, 300 mg once daily for 12 weeks, mean ± SE
[12] = patients with TG ≧200 mg/dL, 300 mg once daily for 12 weeks, median (min, max)
[13] = patients with TG ≧200 mg/dL, 600 mg once daily for 12 weeks, mean ± SE
[14] = patients with TG ≧200 mg/dL, 600 mg once daily for 12 weeks, median (min, max)
[15] = patients with TG ≧200 mg/dL, 900 mg once daily for 12 weeks, mean ± SE
[16] = patients with TG ≧200 mg/dL, 900 mg once daily for 12 weeks, median (min, max)
[17] = patients with mean baseline TG≧2200 mg/dL (so in the source), 150 mg dose

SMILES: CC(C)(CCCCOCCCCC(C)(C)C(=O)[O-])C(=O)[O-].[Ca+2] [gemcabene, 6-(5-carboxy-5-methyl-hexyloxy)-2,2-dimethylhexanoic acid monocalcium salt]
- levels of apolipoprotein B (both TG strata, 600 and 900 mg doses): corresponding decreases
- reduction of non-HDL-C levels (both TG strata, higher doses): up to 18%
- Percent Change from Baseline at Last Visit, Apolipoprotein A-II [1]: 5.5 ± 2.6 %
- Percent Change from Baseline at Last Visit, Apolipoprotein CIII [1]: −7.0 ± 9.2%
- Percent Change from Baseline at Last Visit, HDL-C [1]: 6.2 ± 3.1%
- Percent Change from Baseline at Last Visit, LDL-C [1]: −2.6 ± 4.4%
- Percent Change from Baseline at Last Visit, NonHDL-C [1]: −2.5 ± 4.0%
- Percent Change from Baseline at Last Visit, Apolipoprotein A-I [2]: 7.3 (−7, 40) %
- Percent Change from Baseline at Last Visit, Apolipoprotein B [2]: −0.7 (−17, 13) %
- Percent Change from Baseline at Last Visit, Apolipoprotein E [2]: −7.7 (−42, 15) %
- Percent Change from Baseline at Last Visit, TG [2]: −0.4 (−33, 32) %
- Percent Change from Baseline at Last Visit, Apolipoprotein A-II [3]: 3.3 ± 2.8%
- Percent Change from Baseline at Last Visit, Apolipoprotein CIII [3]: −14.3 ± 10.5%
- Percent Change from Baseline at Last Visit, HDL-C [3]: 5.3 ± 3.5%
- Percent Change from Baseline at Last Visit, LDL-C [3]: −5.6 ± 5.2%
- Percent Change from Baseline at Last Visit, NonHDL-C [3]: −11.6 ± 4.2 %
- Percent Change from Baseline at Last Visit, Apolipoprotein A-I [4]: 1.3 (−11, 31) %
- Percent Change from Baseline at Last Visit, Apolipoprotein B [4]: −11.7 (−33, 2) %
- Percent Change from Baseline at Last Visit, TG [4]: −14.6 (−55, 18) %
- Percent Change from Baseline at Last Visit, Apolipoprotein A-II [5]: 7.2 ± 2.6 %
- Percent Change from Baseline at Last Visit, Apolipoprotein CIII [5]: 5.4 ± 9.0%
- Percent Change from Baseline at Last Visit, HDL-C [5]: 0.5 ± 3.2%
- Percent Change from Baseline at Last Visit, LDL-C [5]: −24.9 ± 4.6 %
- Percent Change from Baseline at Last Visit, NonHDL-C [5]: −17.6 ± 3.8 %
- Percent Change from Baseline at Last Visit, Apolipoprotein A-I [6]: 7.1 (−7, 89) %
- Percent Change from Baseline at Last Visit, TG [6]: 6.4 (−45, 97) %
- Percent Change from Baseline at Last Visit, Apolipoprotein A-II [7]: 6.5 ± 2.5 %
- Percent Change from Baseline at Last Visit, Apolipoprotein CIII [7]: −9.5 ± 8.6%
- Percent Change from Baseline at Last Visit, HDL-C [7]: 5.0 ± 3.2%
- Percent Change from Baseline at Last Visit, LDL-C [7]: −15.2 ± 4.4 %
- Percent Change from Baseline at Last Visit, NonHDL-C [7]: −17.9 ± 3.6 %
- Percent Change from Baseline at Last Visit, Apolipoprotein A-I [8]: 5.5 (−11, 34) %
- Percent Change from Baseline at Last Visit, Apolipoprotein B [8]: −15.7 (−38, 21) %
- Percent Change from Baseline at Last Visit, TG [8]: −8.1 (−35, 29) %
- Percent Change from Baseline at Last Visit, Apolipoprotein A-II [9]: 5.9 ± 2.7 %
- Percent Change from Baseline at Last Visit, Apolipoprotein CIII [9]: −23.6 ± 5.7 %
- Percent Change from Baseline at Last Visit, HDL-C [9]: 17.6 ± 3.8 %
- Percent Change from Baseline at Last Visit, NonHDL-C [9]: −1.6 ± 3.6%
- Percent Change from Baseline at Last Visit, Apolipoprotein B [10]: 0.0 (−29, 33) %
- Percent Change from Baseline at Last Visit, Apolipoprotein E [10]: −20.0 (−52, 19) %
- Percent Change from Baseline at Last Visit, LDL-C [10]: 16.4 (−26,255) %
- Percent Change from Baseline at Last Visit, Apolipoprotein A-II [11]: 0.5 ± 2.6%
- Percent Change from Baseline at Last Visit, Apolipoprotein CIII [11]: −30.9 ± 5.6 %
- Percent Change from Baseline at Last Visit, HDL-C [11]: 12.3 ± 3.8%
- Percent Change from Baseline at Last Visit, NonHDL-C [11]: −9.4 ± 3.5%
- Percent Change from Baseline at Last Visit, Apolipoprotein B [12]: −6.5 (−30, 31) %
- Percent Change from Baseline at Last Visit, Apolipoprotein E [12]: −37.4** %
- Percent Change from Baseline at Last Visit, LDL-C [12]: 8.3 (−31, 252) %
- Percent Change from Baseline at Last Visit, Apolipoprotein A-II [13]: −0.8 ± 3.0%
- Percent Change from Baseline at Last Visit, Apolipoprotein CIII [13]: −6.4 ± 6.5%
- Percent Change from Baseline at Last Visit, HDL-C [13]: −0.9 ± 4.1%
- Percent Change from Baseline at Last Visit, NonHDL-C [13]: −10.9 ± 4.2%
- Percent Change from Baseline at Last Visit, Apolipoprotein B [14]: −5.7 (−34, 54) %
- Percent Change from Baseline at Last Visit, Apolipoprotein E [14]: −25.4 (−49, 18) %
- Percent Change from Baseline at Last Visit, TG [14]: −12.7 (−59, 38) %
- Percent Change from Baseline at Last Visit, Apolipoprotein A-II [15]: −4.8 ± 2.6%
- Percent Change from Baseline at Last Visit, Apolipoprotein CIII [15]: −10.8 ± 5.6%
- Percent Change from Baseline at Last Visit, HDL-C [15]: −0.9 ± 3.8%
- Percent Change from Baseline at Last Visit, NonHDL-C [15]: −16.3 ± 4.3 %
- Percent Change from Baseline at Last Visit, Apolipoprotein E [16]: −11.7 (−59, 65) %
- Percent Change from Baseline at Last Visit, TG [16]: −9.0 %
- serum HDL-C or TG levels versus placebo (patients with mean baseline TG <200 mg/dL, any dose): no significant differences
- decrease in apolipoprotein C-III [17]: 23%
- increase in level of apolipoprotein A-I [17]: 6%
- increase in level of apolipoprotein A-II [17]: 6%
- increase in serum HDL-C levels [17]: 18%
- reduction of TG serum levels [17]: 27%
- reduction of TG serum levels (patients with mean baseline TG≧2200 mg/dL (so in the source), 300 mg dose): 39%
- serum HDL-C or TG levels versus placebo (patients with mean baseline TG≧2200 mg/dL (so in the source), doses of 600 or 900 mg): No significant differences
